Tested on: yeast genes (expressed mRNA)
Experiment: DNA chip measurement of expressed mRNA of yeast genes after culture with a toxic chemical substance
Assay type: cell-based, Saccharomyces cerevisiae S288C
Method: Yeast (Saccharomyces cerevisiae S288C (a SUC2mal mel gap2 CUP1)) were cultured at 25° C. on YPD medium (yeast extract 1%, polypeptone 2%, glucose 2%). One of toxic chemical substances was added to the cell at logarithmic growth phase, and the cell was further cultured for two hours. Cell was cultured without any chemical substance in the same condition, and was used as a control. Concentrations of the chemical substances were defined to inhibit the growth of the yeast but not lead to death.
After the completion of cultivation, the culture was centrifuged to collect the cells. To the cells, sodium acetate buffer (50 mM sodium acetate, 10 mM EDTA, 1% SDS) was added, and the mixture was shaken at 65° C. for five minutes, followed by returning to room temperature, and obtaining the supernatant, which procedure was repeated two times. To the supernatant, ½ amount of a solution of phenol/chloroform (1:1) was added, and the mixture was centrifuged to give a supernatant, an equal amount of chloroform was added, and the mixture was centrifuged to give a supernatant. To the supernatant, an equal amount of isopropanol containing 0.3 M sodium acetate was added, and the mixture was allowed to stand at room temperature for 30 minutes, after which the mixture was centrifuged to give sediment of the whole RNAs. Seventy % ethanol was added to the sediment, and the mixture was again centrifuged to give sediment, which was then dried and dissolved in water. mRNA was isolated from the whole RNAs as followings. In view of the fact that a poly A chain is attached to the 3′ terminus of mRNA, a polynucleotide having a poly T structure which was immobilized on the surface of latex beads was used to trap the mRNA, and then the mRNA was washed and eluted with spine column (Oligotex-dT30<Super>mRNA Purification Kit, Takara). Reverse transcription of the mRNA was conducted with a reverse transcriptase (Super Script II Reverse Transcriptase; catalogue No. 18064-014, GibcoBRL) using fluorescence-labeled nucleotides to give cDNAs that were introduced with Cy3-dUTP or Cy5-dUTP during the reverse transcription.
The labeled cDNAs were dissolved in TE buffer (10 mM Tris-HCl/1 mM EDTA, pH 8.0), and the solution was dropped on the DNA chip containing the whole genes of yeast (DNA Chip Research Inc. Japan) so that the cDNAs were hybridized on the DNA chip at 65° C. for over 12 hours. The fluoresces intensity of the DNA chip was read with a scanner, and the ratio relative to the fluorescence intensity resulting from the absence of chemical substance was estimated as the following, which is shown in Tables 1 to 9.
In the Tables, “Intensity” indicated in the rightmost column is a value of the level of expressed mRNA of each gene in control cells as divided by the average level of the expressions of the whole genes. A gene of which mRNA level is lower in control, and is higher in cases of addition of chemical substance, is especially useful in the detection of toxic substances.
Here, when a ratio of an amount of mRNA expressed in the presence of the chemical substance to an amount of mRNA expressed in the absence of the chemical substance is two or more, then it is considered significant.

## CN(C)C(=S)SSC(=S)N(C)C [(10), Tetramethylthiuram disulfide]
Yeast gene YJL152W, cultured two hours with substance
  The level of expressed mRNA in the presence of chemical substance/The level of expressed mRNA in the absence of chemical substance: 1.0
Yeast gene YJL161W, cultured two hours with substance
  The level of expressed mRNA in the presence of chemical substance/The level of expressed mRNA in the absence of chemical substance: 2.1
Yeast gene YJL171C, cultured two hours with substance
  The level of expressed mRNA in the presence of chemical substance/The level of expressed mRNA in the absence of chemical substance: 1.7
Yeast gene YJL186W, cultured two hours with substance
  The level of expressed mRNA in the presence of chemical substance/The level of expressed mRNA in the absence of chemical substance: 0.5
Yeast gene YJR008W, cultured two hours with substance
  The level of expressed mRNA in the presence of chemical substance/The level of expressed mRNA in the absence of chemical substance: 1.9
Yeast gene YJR010W
  The level of expressed mRNA in the presence of chemical substance/The level of expressed mRNA in the absence of chemical substance: 11.1
Yeast gene YJR054W, cultured two hours with substance
  The level of expressed mRNA in the presence of chemical substance/The level of expressed mRNA in the absence of chemical substance: 0.6
Yeast gene YJR155W
  The level of expressed mRNA in the presence of chemical substance/The level of expressed mRNA in the absence of chemical substance: 18.8
Yeast gene YJR155W, cultured for two hours with substance
  The level of expressed mRNA in the presence of chemical substance/The level of expressed mRNA in the absence of chemical substance: 18.8
Yeast gene YKL070W
  The level of expressed mRNA in the presence of chemical substance/The level of expressed mRNA in the absence of chemical substance: 11.0
Yeast gene YKL071W, cultured two hours with substance
  The level of expressed mRNA in the presence of chemical substance/The level of expressed mRNA in the absence of chemical substance: 109.2
Yeast gene YKL086W, cultured two hours with substance
  The level of expressed mRNA in the presence of chemical substance/The level of expressed mRNA in the absence of chemical substance: 20.5
Yeast gene YKL151C, cultured two hours with substance
  The level of expressed mRNA in the presence of chemical substance/The level of expressed mRNA in the absence of chemical substance: 3.5
Yeast gene YKL153W, cultured two hours with substance
  The level of expressed mRNA in the presence of chemical substance/The level of expressed mRNA in the absence of chemical substance: 1.4
Yeast gene YKL195W, cultured two hours with substance
  The level of expressed mRNA in the presence of chemical substance/The level of expressed mRNA in the absence of chemical substance: 2.1
Yeast gene YKR076W
  The level of expressed mRNA in the presence of chemical substance/The level of expressed mRNA in the absence of chemical substance: 43.1
Yeast gene YKR091W, cultured two hours with substance
  The level of expressed mRNA in the presence of chemical substance/The level of expressed mRNA in the absence of chemical substance: 1.6
Yeast gene YLL060C (detoxification protein gene)
  The level of expressed mRNA in the presence of chemical substance/The level of expressed mRNA in the absence of chemical substance: 23.2
Yeast gene YLL060C (stress protein genes)
  The level of expressed mRNA in the presence of chemical substance/The level of expressed mRNA in the absence of chemical substance: 23.2
Yeast gene YLR054C, cultured two hours with substance
  The level of expressed mRNA in the presence of chemical substance/The level of expressed mRNA in the absence of chemical substance: 1.1
Yeast gene YLR108C
  The level of expressed mRNA in the presence of chemical substance/The level of expressed mRNA in the absence of chemical substance: 10.4
Yeast gene YLR149C, cultured two hours with substance
  The level of expressed mRNA in the presence of chemical substance/The level of expressed mRNA in the absence of chemical substance: 5.2
Yeast gene YLR152C, cultured two hours with substance
  The level of expressed mRNA in the presence of chemical substance/The level of expressed mRNA in the absence of chemical substance: 1.1
Yeast gene YLR194C, cultured two hours with substance
  The level of expressed mRNA in the presence of chemical substance/The level of expressed mRNA in the absence of chemical substance: 1.1
Yeast gene YLR217W, cultured two hours with substance
  The level of expressed mRNA in the presence of chemical substance/The level of expressed mRNA in the absence of chemical substance: 8.2
Yeast gene YLR324W, cultured two hours with substance
  The level of expressed mRNA in the presence of chemical substance/The level of expressed mRNA in the absence of chemical substance: 1.4
Yeast gene YLR350W, cultured two hours with substance
  The level of expressed mRNA in the presence of chemical substance/The level of expressed mRNA in the absence of chemical substance: 1.4
Yeast gene YLR387C, cultured two hours with substance
  The level of expressed mRNA in the presence of chemical substance/The level of expressed mRNA in the absence of chemical substance: 3.0
Yeast gene YLR460C, cultured two hours with substance
  The level of expressed mRNA in the presence of chemical substance/The level of expressed mRNA in the absence of chemical substance: 31.6
Yeast gene YML117W, cultured two hours with substance
  The level of expressed mRNA in the presence of chemical substance/The level of expressed mRNA in the absence of chemical substance: 1.4
Yeast gene YML131W
  The level of expressed mRNA in the presence of chemical substance/The level of expressed mRNA in the absence of chemical substance: 17.7
Yeast gene YMR009W, cultured two hours with substance
  The level of expressed mRNA in the presence of chemical substance/The level of expressed mRNA in the absence of chemical substance: 2.2
Yeast gene YMR034C, cultured two hours with substance
  The level of expressed mRNA in the presence of chemical substance/The level of expressed mRNA in the absence of chemical substance: 2.7
Yeast gene YMR067C, cultured two hours with substance
  The level of expressed mRNA in the presence of chemical substance/The level of expressed mRNA in the absence of chemical substance: 3.5
Yeast gene YMR090W, cultured two hours with substance
  The level of expressed mRNA in the presence of chemical substance/The level of expressed mRNA in the absence of chemical substance: 6.1
Yeast gene YMR095C, cultured two hours with substance
  The level of expressed mRNA in the presence of chemical substance/The level of expressed mRNA in the absence of chemical substance: 1.4
Yeast gene YMR097C, cultured two hours with substance
  The level of expressed mRNA in the presence of chemical substance/The level of expressed mRNA in the absence of chemical substance: 2.1
Yeast gene YMR102C, cultured two hours with substance
  The level of expressed mRNA in the presence of chemical substance/The level of expressed mRNA in the absence of chemical substance: 2.6
Yeast gene YMR107W, cultured two hours with substance
  The level of expressed mRNA in the presence of chemical substance/The level of expressed mRNA in the absence of chemical substance: 17.1
Yeast gene YMR140W, cultured two hours with substance
  The level of expressed mRNA in the presence of chemical substance/The level of expressed mRNA in the absence of chemical substance: 2.3
Yeast gene YMR180C, cultured two hours with substance
  The level of expressed mRNA in the presence of chemical substance/The level of expressed mRNA in the absence of chemical substance: 2.2
Yeast gene YMR184W, cultured two hours with substance
  The level of expressed mRNA in the presence of chemical substance/The level of expressed mRNA in the absence of chemical substance: 0.9
Yeast gene YMR191W, cultured two hours with substance
  The level of expressed mRNA in the presence of chemical substance/The level of expressed mRNA in the absence of chemical substance: 3.5
Yeast gene YMR251W, cultured two hours with substance
  The level of expressed mRNA in the presence of chemical substance/The level of expressed mRNA in the absence of chemical substance: 11.6
Yeast gene YMR295C, cultured two hours with substance
  The level of expressed mRNA in the presence of chemical substance/The level of expressed mRNA in the absence of chemical substance: 0.8
Yeast gene YMR316W, cultured two hours with substance
  The level of expressed mRNA in the presence of chemical substance/The level of expressed mRNA in the absence of chemical substance: 3.0
Yeast gene YMR322C, cultured two hours with substance
  The level of expressed mRNA in the presence of chemical substance/The level of expressed mRNA in the absence of chemical substance: 10.3
Yeast gene YNL044W, cultured two hours with substance
  The level of expressed mRNA in the presence of chemical substance/The level of expressed mRNA in the absence of chemical substance: 0.8
Yeast gene YNL074C, cultured two hours with substance
  The level of expressed mRNA in the presence of chemical substance/The level of expressed mRNA in the absence of chemical substance: 2.0

From US20100041089A1, “IMPROVED METHOD FOR DETECTING CHEMICAL […]” (priority 2006, published 2010)
